Tests used:
Hepatitis C virus [1] = test: Antiviral activity against Hepatitis C virus genotype 1b expressed in ET cells after 48 hrs by luciferase reporter gene assay; format: functional, organism-based, Hepacivirus hominis; settings: for IC50: Hepatitis C virus, genotype 1b, ET, 48 h
[2] = Inhibition of PI3Kdelta (1 to 1044)/6xHis-tagged p85 (1 to 724) (unknown origin) using diC8-PIP2 as substrate preincubated for 30 mins followed by substrate addition measured after 45 to 60 mins; set-up: species or system Homo sapiens
[3] = Inhibition of PI3Kbeta (1 to 1070)/6xHis-tagged p85 (1 to 724) (unknown origin) using diC8-PIP2 as substrate preincubated for 30 mins followed by substrate addition measured after 45 to 60 mins; set-up: species or system Homo sapiens
[4] = Inhibition of PI3Kalpha (1 to 1068)/6xHis-tagged p85 (1 to 724) (unknown origin) using diC8-PIP2 as substrate preincubated for 30 mins followed by substrate addition measured after 45 to 60 mins; set-up: species or system Homo sapiens
[5] = Inhibition of 6xHis-tagged PI4K-beta (13 to 828) 316 to 330 deletion mutant (unknown origin) using D-myo-phosphatidylinositol as substrate preincubated for 30 mins followed by substrate addition measured after 180 mins by luminescence assay; set-up: species or system Homo sapiens
[6] = biological target: Phosphatidylinositol 4-kinase alpha (Homo sapiens, UniProt P42356); test: Inhibition of GST-tagged PI4K-alpha (1 to 2044) (unknown origin) using D-myo-phosphatidylinositol as substrate preincubated for 30 mins followed by substrate addition measured after 180 mins by luminescence assay
[7] = biological target: Phosphatidylinositol 4,5-bisphosphate 3-kinase catalytic subunit gamma isoform (Homo sapiens, UniProt P48736)
Description: Inhibition of PI3Kgamma (2 to 1102) (unknown origin) using diC8-PIP2 as substrate preincubated for 30 mins followed by substrate addition measured after 45 to 60 mins

Hepatitis C virus [8] = test: Antiviral activity against Hepatitis C virus genotype 1a expressed in ET cells after 48 hrs by luciferase reporter gene assay; format: functional, organism-based, Hepacivirus hominis, subtype 1a; settings: et

Sequence of Phosphatidylinositol 4-kinase alpha (P42356 whole entry, canonical isoform): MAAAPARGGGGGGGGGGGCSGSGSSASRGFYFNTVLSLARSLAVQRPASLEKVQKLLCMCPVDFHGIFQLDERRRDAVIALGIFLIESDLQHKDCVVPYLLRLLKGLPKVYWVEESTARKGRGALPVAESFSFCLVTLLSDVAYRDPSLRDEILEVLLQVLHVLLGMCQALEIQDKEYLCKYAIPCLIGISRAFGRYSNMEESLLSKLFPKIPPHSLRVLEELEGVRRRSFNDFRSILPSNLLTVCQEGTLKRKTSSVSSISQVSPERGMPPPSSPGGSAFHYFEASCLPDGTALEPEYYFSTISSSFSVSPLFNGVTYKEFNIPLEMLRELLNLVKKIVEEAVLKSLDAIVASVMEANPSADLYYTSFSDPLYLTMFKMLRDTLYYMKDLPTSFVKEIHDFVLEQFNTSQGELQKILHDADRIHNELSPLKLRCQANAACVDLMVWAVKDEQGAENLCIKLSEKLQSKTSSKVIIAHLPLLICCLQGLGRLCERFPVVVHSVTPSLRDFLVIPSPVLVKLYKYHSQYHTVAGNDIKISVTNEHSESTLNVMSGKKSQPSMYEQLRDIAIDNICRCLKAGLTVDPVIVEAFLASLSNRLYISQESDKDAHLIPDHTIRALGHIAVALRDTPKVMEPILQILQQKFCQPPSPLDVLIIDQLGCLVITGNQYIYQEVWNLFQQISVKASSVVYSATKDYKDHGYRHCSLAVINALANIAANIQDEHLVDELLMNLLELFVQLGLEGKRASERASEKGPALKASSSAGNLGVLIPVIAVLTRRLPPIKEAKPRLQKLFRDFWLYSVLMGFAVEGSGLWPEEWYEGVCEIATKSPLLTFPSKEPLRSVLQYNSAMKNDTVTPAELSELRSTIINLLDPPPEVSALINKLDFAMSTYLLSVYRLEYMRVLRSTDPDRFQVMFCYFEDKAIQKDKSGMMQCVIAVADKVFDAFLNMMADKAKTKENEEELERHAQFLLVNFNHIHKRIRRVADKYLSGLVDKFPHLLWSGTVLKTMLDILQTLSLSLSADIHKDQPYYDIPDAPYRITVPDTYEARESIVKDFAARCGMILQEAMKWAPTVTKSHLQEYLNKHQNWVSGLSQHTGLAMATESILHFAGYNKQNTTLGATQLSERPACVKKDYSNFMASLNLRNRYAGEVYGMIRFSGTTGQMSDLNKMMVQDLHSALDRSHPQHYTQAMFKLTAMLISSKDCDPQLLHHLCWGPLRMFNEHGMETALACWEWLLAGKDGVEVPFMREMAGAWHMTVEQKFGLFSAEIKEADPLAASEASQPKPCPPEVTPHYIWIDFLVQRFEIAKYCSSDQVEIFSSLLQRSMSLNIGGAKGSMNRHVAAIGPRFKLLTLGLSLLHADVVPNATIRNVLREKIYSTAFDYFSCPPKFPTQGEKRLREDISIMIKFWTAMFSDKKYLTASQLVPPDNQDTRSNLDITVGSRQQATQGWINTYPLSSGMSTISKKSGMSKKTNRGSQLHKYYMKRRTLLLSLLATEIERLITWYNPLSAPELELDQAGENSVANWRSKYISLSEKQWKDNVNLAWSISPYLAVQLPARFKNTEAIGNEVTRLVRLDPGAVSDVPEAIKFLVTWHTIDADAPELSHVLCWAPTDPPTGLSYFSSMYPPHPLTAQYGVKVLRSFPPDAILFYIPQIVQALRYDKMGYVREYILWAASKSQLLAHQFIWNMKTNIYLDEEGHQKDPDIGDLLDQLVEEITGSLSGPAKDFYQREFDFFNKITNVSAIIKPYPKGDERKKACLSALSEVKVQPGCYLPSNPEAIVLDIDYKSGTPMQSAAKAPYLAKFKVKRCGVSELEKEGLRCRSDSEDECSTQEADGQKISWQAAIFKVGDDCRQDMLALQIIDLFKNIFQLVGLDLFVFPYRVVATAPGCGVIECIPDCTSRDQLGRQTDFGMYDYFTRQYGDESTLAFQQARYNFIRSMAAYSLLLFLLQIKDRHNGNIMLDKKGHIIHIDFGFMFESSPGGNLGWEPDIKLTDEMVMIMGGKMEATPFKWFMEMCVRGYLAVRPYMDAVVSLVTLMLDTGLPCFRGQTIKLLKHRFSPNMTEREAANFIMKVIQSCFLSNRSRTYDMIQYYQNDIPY
Sequence of Phosphatidylinositol 4,5-bisphosphate 3-kinase catalytic subunit gamma isoform (P48736 whole entry, canonical isoform): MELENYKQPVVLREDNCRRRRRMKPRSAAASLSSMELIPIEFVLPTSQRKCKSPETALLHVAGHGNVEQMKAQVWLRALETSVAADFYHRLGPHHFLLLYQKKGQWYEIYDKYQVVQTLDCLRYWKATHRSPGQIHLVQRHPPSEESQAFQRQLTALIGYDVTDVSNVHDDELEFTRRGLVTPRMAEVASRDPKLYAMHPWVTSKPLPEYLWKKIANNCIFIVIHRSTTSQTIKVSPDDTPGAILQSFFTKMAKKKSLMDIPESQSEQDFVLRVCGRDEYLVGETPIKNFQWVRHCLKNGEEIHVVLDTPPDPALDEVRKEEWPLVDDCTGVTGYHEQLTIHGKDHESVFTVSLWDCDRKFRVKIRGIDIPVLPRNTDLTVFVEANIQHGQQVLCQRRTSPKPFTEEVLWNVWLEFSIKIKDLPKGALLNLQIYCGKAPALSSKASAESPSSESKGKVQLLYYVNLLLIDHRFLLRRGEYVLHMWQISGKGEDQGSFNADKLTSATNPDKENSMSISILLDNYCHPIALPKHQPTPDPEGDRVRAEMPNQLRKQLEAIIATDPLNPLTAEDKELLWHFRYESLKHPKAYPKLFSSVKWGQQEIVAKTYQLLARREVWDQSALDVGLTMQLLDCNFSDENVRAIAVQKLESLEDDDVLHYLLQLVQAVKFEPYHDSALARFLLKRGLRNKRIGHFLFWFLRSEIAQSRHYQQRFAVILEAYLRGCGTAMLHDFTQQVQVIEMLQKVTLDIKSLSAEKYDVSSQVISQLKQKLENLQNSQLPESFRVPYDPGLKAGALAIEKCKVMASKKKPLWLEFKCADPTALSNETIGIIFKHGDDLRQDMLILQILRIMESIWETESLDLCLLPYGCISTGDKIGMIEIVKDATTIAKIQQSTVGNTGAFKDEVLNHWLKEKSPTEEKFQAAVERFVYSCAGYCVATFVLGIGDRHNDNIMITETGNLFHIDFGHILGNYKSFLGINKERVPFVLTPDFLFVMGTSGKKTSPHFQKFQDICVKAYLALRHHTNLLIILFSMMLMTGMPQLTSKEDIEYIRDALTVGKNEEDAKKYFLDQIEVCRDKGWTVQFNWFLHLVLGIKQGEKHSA

| Structure (SMILES) | IC50 (Hepatitis C virus [1]) [nM] | pIC50 [2] | pIC50 [3] | pIC50 [4] | pIC50 [5] | IC50 [6] [nM] | IC50 [7] [nM] | pIC50 (Hepatitis C virus [1]; et) | pIC50 (Hepatitis C virus [8]) |
| --- | --- | --- | --- | --- | --- | --- | --- | --- | --- |
| COc1ncc(-c2ccc3nc(N)n(-c4ccccc4)c(=O)c3c2)cc1NS(=O)(=O)c1ccccc1 | 0.501 | 7.7 | 6.3 | 7.3 | 6.7 | 2.51 | – | – | – |
| Nc1ncc(-c2ccc3nc(N)n(-c4ccccc4)c(=O)c3c2)cc1NS(=O)(=O)c1ccc(F)cc1F | 15.8 | 6.4 | 5.3 | 6.7 | 7.5 | 0.794 | – | – | – |
| COc1ncc(-c2ccc3nc(N)n(-c4ccccc4)c(=O)c3c2)cc1NS(=O)(=O)c1ccc(C#N)cc1 | 0.631 | 7.6 | 6.3 | 6.6 | 7.5 | 1 | 50.1 | – | – |
| CCn1c(N)nc2ccc(-c3cnc(OC)c(S(=O)(=O)Nc4ccc(F)cc4F)c3)cc2c1=O | 20 | 6.8 | 6.4 | 6.9 | 6 | 39.8 | 158 | – | – |
| COc1ncc(-c2ccc3nc(N)n(-c4ccccc4C(C)C)c(=O)c3c2)cc1S(=O)(=O)Nc1ccc(F)cc1F | 6.31 | 5.6 | 4.8 | 5.8 | 6 | 31.6 | 1000 | – | – |
| COc1ccc(-c2ccc3nc(N)n(-c4ccccc4)c(=O)c3c2)cc1NS(=O)(=O)c1ccc(F)cc1F | 31.6 | 5.4 | 4 | 5.8 | 6.8 | 316 | 316 | – | – |
| COc1ncc(-c2ccc3nc(N)n(-c4ccccc4)c(=O)c3c2)cc1NS(C)(=O)=O | 20 | 6.6 | 5.3 | 6.4 | 6.1 | 20 | 794 | – | – |
| COc1ncc(-c2ccc3nc(N)n(-c4cccc(C(F)(F)F)c4)c(=O)c3c2)cc1S(=O)(=O)Nc1ccc(F)cc1F | 79.4 | 6 | 5 | 6 | 5.1 | 50.1 | 1580 | – | – |
| COc1ncc(-c2ccc3nc(N)c(-c4ccccc4)cc3n2)cc1NS(=O)(=O)c1ccc(F)cc1F | > 5010 | 4.9 | 4.2 | 4.2 | 5 | 7940 | 25100 | – | – |
| COc1ncc(-c2ccc3nc(N)n(-c4ccccc4C(F)(F)F)c(=O)c3c2)cc1S(=O)(=O)Nc1ccc(F)cc1F | – | 5.5 | 5 | – | 5.8 | 15.8 | 3160 | 8.5 | 7.7 |
| COc1ncc(-c2ccc3nc(N)n(-c4ccc(C(F)(F)F)cc4)c(=O)c3c2)cc1S(=O)(=O)Nc1ccc(F)cc1F | 10 | 6.4 | 4.6 | 6.1 | 5 | 50.1 | 398 | – | – |

Continued by falling IC50 [6], values first:

| IC50 (Hepatitis C virus [1]) [nM] | pIC50 [2] | pIC50 [3] | pIC50 [4] | pIC50 [5] | IC50 [6] [nM] | IC50 [7] [nM] | Structure (SMILES) | pIC50 (Hepatitis C virus [1]; et) | pIC50 (Hepatitis C virus [8]) |
| --- | --- | --- | --- | --- | --- | --- | --- | --- | --- |
| > 2000 | 4.8 | 4.5 | 5.5 | 5 | 3980 | 3980 | COc1ncc(-c2ccc3nc(N)n(-c4ccccc4)c(=O)c3c2)cc1N(C)S(=O)(=O)c1ccc(F)cc1F | – | – |
| 126 | 5.7 | 6 | 5.3 | 5.4 | 631 | 6310 | COc1ncc(-c2cnc3nc(N)c(-c4ccccc4)cc3c2)cc1NS(=O)(=O)c1ccc(F)cc1F | – | – |
| 158 | 6.2 | 5.8 | 5.7 | 5 | 200 | 1260 | COc1ncc(-c2cc3cc(-c4ccccc4)c(N)nc3cn2)cc1NS(=O)(=O)c1ccc(F)cc1F | – | – |
| 31.6 | 6.7 | 5.3 | 6.4 | 5.9 | 126 | 501 | COc1ncc(-c2ccc3nc(N)n(-c4ccccc4)c(=O)c3c2)cc1NS(=O)(=O)C(C)C | – | – |
| 10 | 6.9 | 5.9 | 6.5 | 5.8 | 100 | 63.1 | COc1ncc(-c2ccc3nc(N)c(-c4ccccc4)cc3c2)cc1NS(=O)(=O)c1ccc(F)cc1F | – | – |
| 3.16 | 8 | 5.6 | 7.3 | 6.2 | 15.8 | – | COc1ncc(-c2ccc3nc(N)n(-c4ccccc4)c(=O)c3c2)cc1NS(=O)(=O)c1ccc(C)cc1 | – | – |
| 3.98 | 6.6 | 5.4 | 6.6 | 5.9 | 10 | 501 | COc1ncc(-c2ccc3nc(N)n(C4CCOCC4)c(=O)c3c2)cc1S(=O)(=O)Nc1ccc(F)cc1F | – | – |
| 2.51 | 6.7 | 5.7 | 6.5 | 6.1 | 10 | 316 | COc1ncc(-c2ccc3nc(N)n(-c4ccccc4C)c(=O)c3c2)cc1S(=O)(=O)Nc1ccc(F)cc1F | – | – |
| 5.01 | 6.3 | 4.9 | 6 | 5.5 | 6.31 | 1260 | COc1ncc(-c2ccc3nc(N)n(-c4ccccc4)c(=O)c3c2)cc1S(=O)(=O)Nc1ccc(F)cc1F | – | – |
| 15.8 | 7.8 | 6.7 | 7.1 | 6.9 | 5.01 | 7.94 | COc1ncc(-c2ccc3nc(N)c(-c4ccccc4)nc3c2)cc1NS(=O)(=O)c1ccc(F)cc1F | – | – |
| 1.26 | 7.3 | 6.3 | 7.1 | 6.4 | 3.98 | 50.1 | COc1ncc(-c2ccc3nc(N)n(-c4ccccc4)c(=O)c3c2)cc1NS(=O)(=O)c1cccc(C)c1 | – | – |
| – | 8.9 | 8.7 | 8.9 | 7.7 | 1.58 | 2.51 | COc1ncc(-c2ccc3ncnc(N4CCOCC4)c3c2)cc1NS(=O)(=O)c1ccc(F)cc1F | – | – |
| 0.398 | 7.6 | 6.4 | 7.2 | 6.8 | 1 | 39.8 | COc1ncc(-c2ccc3nc(N)n(-c4ccccc4)c(=O)c3c2)cc1NS(=O)(=O)c1ccccc1C | – | – |
| 1 | 8.5 | 7 | 8.4 | 7.4 | 0.316 | 6.31 | COc1ncc(-c2ccc3nc(N)n(-c4ccccc4)c(=O)c3c2)cc1NS(=O)(=O)c1cccnc1 | – | – |

Reference: ChEMBL document CHEMBL3120088, “Discovery of selective small molecule type III phosphatidylinositol 4-kinase alpha (PI4KIIIα) inhibitors as anti hepatitis C (HCV) agents” (J Med Chem, 2014)
